Active and inactive are the calls of the source. The calls are words filed in the database; no cut-off is given here. Where a SMILES comes first, the peptide text is derived from it. [ ]: non-standard residue; d: D form. Aib = CC(C)(N)C(=O)O
Tests used:
[1] = system: Erythrocyte; test: Hemolytic activity in human erythrocytes at 10 ug/ml incubated for 1 hr by absorbance based analysis; type: toxicity, cell-based; conditions: dose 10 µg/ml
[2] = Ion conductance property of compound in Diphytanoylphosphatidyl-choline bilayer assessed as ion channel forming ability at 1 uM treated at cis-side of the membrane at +100 mV by tip-dip patch clamp method
[3] = system: Erythrocyte; test: Hemolytic activity in human erythrocytes at 50 ug/ml incubated for 1 hr by absorbance based analysis; type: toxicity, cell-based; conditions: dose 50 µg/ml

With `CC[C@H](C)[C@H](NC(=O)[C@@H]1CCCN1C(=O)C(C)(C)NC(=O)[C@H](CC(C)C)NC(=O)[C@H](CC(C)C)NC(=O)[C@@H]1CCCN1C(=O)C(C)(C)NC(=O)[C@@H](NC(=O)[C@@H](NC(=O)[C@H](CC(N)=O)NC(=O)C(C)(C)NC(C)=O)[C@@H](C)CC)[C@@H](C)CC)C(=O)O` (Ac-[Aib]NII[Aib]PLL[Aib]PI-OH) the Activity [1] was “Non-Toxic”, the Activity [2] was “Active” and the Activity [3] was “Toxic”.
For `CC[C@H](C)[C@H](NC(=O)[C@@H]1CCCN1C(=O)C(C)(C)NC(=O)[C@H](CC(C)C)NC(=O)[C@@H](NC(=O)[C@@H]1CCCN1C(=O)C(C)(C)NC(=O)[C@@H](NC(=O)[C@@H](NC(=O)[C@H](CC(N)=O)NC(=O)C(C)(C)NC(C)=O)[C@@H](C)CC)[C@@H](C)CC)[C@@H](C)CC)C(=O)O` (Ac-[Aib]NII[Aib]PIL[Aib]PI-OH), the Activity [1] was “Non-Toxic”, the Activity [2] was “Active” and the Activity [3] was “Toxic”.
With `CC[C@H](C)[C@H](NC(=O)[C@H](CC(N)=O)NC(=O)C(C)(C)NC(C)=O)C(=O)N[C@@H](CC(C)C)C(=O)NC(C)(C)C(=O)N1CCC[C@H]1C(=O)N[C@@H](CC(C)C)C(=O)N[C@@H](CC(C)C)C(=O)NC(C)(C)C(=O)N1CCC[C@H]1C(=O)N[C@@H](CC(C)C)C(=O)O` (Ac-[Aib]NIL[Aib]PLL[Aib]PL-OH) the Activity [1] was “Non-Toxic”, the Activity [2] was “inactive” and the Activity [3] was “Toxic”.
With `CC[C@H](C)[C@H](NC(=O)[C@@H]1CCCN1C(=O)C(C)(C)NC(=O)[C@H](CC(C)C)NC(=O)[C@H](CC(C)C)NC(=O)[C@@H]1CCCN1C(=O)C(C)(C)NC(=O)[C@H](CC(C)C)NC(=O)[C@H](CC(C)C)NC(=O)[C@H](CC(N)=O)NC(=O)C(C)(C)NC(C)=O)C(=O)O` (Ac-[Aib]NLL[Aib]PLL[Aib]PI-OH) the Activity [1] was “Non-Toxic”, the Activity [2] was “Active” and the Activity [3] was “Toxic”.
For `CC[C@H](C)[C@H](NC(=O)[C@H](CC(C)C)NC(=O)[C@@H]1CCCN1C(=O)C(C)(C)NC(=O)[C@H](CC(C)C)NC(=O)[C@H](CC(C)C)NC(=O)[C@H](CC(N)=O)NC(=O)C(C)(C)NC(C)=O)C(=O)NC(C)(C)C(=O)N1CCC[C@H]1C(=O)N[C@@H](CC(C)C)C(=O)O` (Ac-[Aib]NLL[Aib]PLI[Aib]PL-OH), the Activity [1] was “Non-Toxic” and the Activity [3] was “Toxic”.
In the case of `CC[C@H](C)[C@H](NC(=O)[C@H](CC(N)=O)NC(=O)C(C)(C)NC(C)=O)C(=O)N[C@H](C(=O)NC(C)(C)C(=O)N1CCC[C@H]1C(=O)N[C@H](C(=O)N[C@@H](CC(C)C)C(=O)NC(C)(C)C(=O)N1CCC[C@H]1C(=O)N[C@@H](CC(C)C)C(=O)O)[C@@H](C)CC)[C@@H](C)CC` (Ac-[Aib]NII[Aib]PIL[Aib]PL-OH), the Activity [1] is reported as “Non-Toxic”, the Activity [2] is reported as “inactive” and the Activity [3] is reported as “Toxic”.
In the case of `CC[C@H](C)[C@H](NC(=O)[C@@H]1CCCN1C(=O)C(C)(C)NC(=O)[C@@H](NC(=O)[C@@H](NC(=O)[C@@H]1CCCN1C(=O)C(C)(C)NC(=O)[C@@H](NC(=O)[C@H](CC(C)C)NC(=O)[C@H](CC(N)=O)NC(=O)C(C)(C)NC(C)=O)[C@@H](C)CC)[C@@H](C)CC)[C@@H](C)CC)C(=O)O` (Ac-[Aib]NLI[Aib]PII[Aib]PI-OH), the Activity [1] is reported as “Non-Toxic”, the Activity [2] is reported as “Active” and the Activity [3] is reported as “Toxic”.
In the case of `CC(=O)NC(C)(C)C(=O)N[C@@H](CC(N)=O)C(=O)N[C@@H](CC(C)C)C(=O)N[C@@H](CC(C)C)C(=O)NC(C)(C)C(=O)N1CCC[C@H]1C(=O)N[C@@H](CC(C)C)C(=O)N[C@@H](CC(C)C)C(=O)NC(C)(C)C(=O)N1CCC[C@H]1C(=O)N[C@@H](CC(C)C)C(=O)O` (Ac-[Aib]NLL[Aib]PLL[Aib]PL-OH), the Activity [1] is reported as “Non-Toxic”, the Activity [2] is reported as “inactive” and the Activity [3] is reported as “Toxic”.
For `CC[C@H](C)[C@H](NC(=O)[C@@H]1CCCN1C(=O)C(C)(C)NC(=O)[C@@H](NC(=O)[C@@H](NC(=O)[C@@H]1CCCN1C(=O)C(C)(C)NC(=O)[C@H](CC(C)C)NC(=O)[C@H](CC(C)C)NC(=O)[C@H](CC(N)=O)NC(=O)C(C)(C)NC(C)=O)[C@@H](C)CC)[C@@H](C)CC)C(=O)O` (Ac-[Aib]NLL[Aib]PII[Aib]PI-OH), the Activity [2] was “Active” and the Activity [3] was “Toxic”.
In the case of `CC[C@H](C)[C@H](NC(=O)[C@@H]1CCCN1C(=O)C(C)(C)NC(=O)[C@@H](NC(=O)[C@@H](NC(=O)[C@@H]1CCCN1C(=O)C(C)(C)NC(=O)[C@@H](NC(=O)[C@@H](NC(=O)[C@H](CC(N)=O)NC(=O)C(C)(C)NC(C)=O)[C@@H](C)CC)[C@@H](C)CC)[C@@H](C)CC)[C@@H](C)CC)C(=O)O` (Ac-[Aib]NII[Aib]PII[Aib]PI-OH), the Activity [1] is reported as “Non-Toxic”, the Activity [2] is reported as “Active” and the Activity [3] is reported as “Toxic”.
With `CC[C@H](C)[C@H](NC(=O)[C@H](CC(C)C)NC(=O)[C@H](CC(N)=O)NC(=O)C(C)(C)NC(C)=O)C(=O)NC(C)(C)C(=O)N1CCC[C@H]1C(=O)N[C@H](C(=O)N[C@H](C(=O)NC(C)(C)C(=O)N1CCC[C@H]1C(=O)N[C@@H](CC(C)C)C(=O)O)[C@@H](C)CC)[C@@H](C)CC` (Ac-[Aib]NLI[Aib]PII[Aib]PL-OH) the Activity [1] was “Non-Toxic”, the Activity [2] was “inactive” and the Activity [3] was “Toxic”.
In the case of `CC[C@H](C)[C@H](NC(=O)[C@@H]1CCCN1C(=O)C(C)(C)NC(=O)[C@@H](NC(=O)[C@H](CC(C)C)NC(=O)[C@@H]1CCCN1C(=O)C(C)(C)NC(=O)[C@H](CC(C)C)NC(=O)[C@H](CC(C)C)NC(=O)[C@H](CC(N)=O)NC(=O)C(C)(C)NC(C)=O)[C@@H](C)CC)C(=O)O` (Ac-[Aib]NLL[Aib]PLI[Aib]PI-OH), the Activity [2] is reported as “Active” and the Activity [3] is reported as “Toxic”.
For `CC[C@H](C)[C@H](NC(=O)[C@@H](NC(=O)[C@@H]1CCCN1C(=O)C(C)(C)NC(=O)[C@H](CC(C)C)NC(=O)[C@H](CC(C)C)NC(=O)[C@H](CC(N)=O)NC(=O)C(C)(C)NC(C)=O)[C@@H](C)CC)C(=O)NC(C)(C)C(=O)N1CCC[C@H]1C(=O)N[C@@H](CC(C)C)C(=O)O` (Ac-[Aib]NLL[Aib]PII[Aib]PL-OH), the Activity [1] was “Non-Toxic” and the Activity [3] was “Toxic”.
For `CC[C@H](C)[C@H](NC(=O)[C@H](CC(N)=O)NC(=O)C(C)(C)NC(C)=O)C(=O)N[C@H](C(=O)NC(C)(C)C(=O)N1CCC[C@H]1C(=O)N[C@H](C(=O)N[C@H](C(=O)NC(C)(C)C(=O)N1CCC[C@H]1C(=O)N[C@@H](CC(C)C)C(=O)O)[C@@H](C)CC)[C@@H](C)CC)[C@@H](C)CC` (Ac-[Aib]NII[Aib]PII[Aib]PL-OH), the Activity [2] was “Active” and the Activity [3] was “Toxic”.
In the case of `CC[C@H](C)[C@H](NC(=O)[C@H](CC(N)=O)NC(=O)C(C)(C)NC(C)=O)C(=O)N[C@H](C(=O)NC(C)(C)C(=O)N1CCC[C@H]1C(=O)N[C@@H](CC(C)C)C(=O)N[C@@H](CC(C)C)C(=O)NC(C)(C)C(=O)N1CCC[C@H]1C(=O)N[C@@H](CC(C)C)C(=O)O)[C@@H](C)CC` (Ac-[Aib]NII[Aib]PLL[Aib]PL-OH), the Activity [1] is reported as “Non-Toxic”, the Activity [2] is reported as “Active” and the Activity [3] is reported as “Toxic”.
